Each structure is given as a SMILES string.

Results on one molecule are retold here after US8663473B2, “Digestion of biosolids in wastewater” (BCR Environmental Corporation, priority 2009, dated 2014).

One experiment concerns anaerobic digester. As to the kind of experiment: Methane production in anaerobic digestion of chlorine dioxide pre-treated sludge. As for the experimental part: Treatment of non-digested wastewater sludge with chlorine dioxide to solubilized the sludge and make nutrients bio-available and then feeding this material into an established anaerobic digester once the chlorine dioxide residual has been reduced improves gas (methane) production in an anaerobic digester. A generally accepted estimate for methane production at 35° C. is 0.25 kg methane per kg COD consumed. One kmol of methane is equivalent with a mass of 16 kg. Per definition, the COD equivalent of 1 kmol of methane is the mass of the amount of oxygen required for complete oxidation according to the formula: CH4+2O2→CO2+2H2O The mass of the 2 O2 is 2 kmol of oxygen or 64 kg. Thus 64 kg Oxygen Demand is equivalent with 16 kg of methane, or 1 kg of oxygen demand (COD) is equivalent with 16/64=0.25 kg methane.
This increase in soluble COD represents 10-11% of the total COD concentration of the sludge, and represents a 2000% increase in soluble COD. The inventors believe that the higher the s-COD the higher capacity for methane production. The resulting increase in methane production as a result of this enhancement of anaerobic digestion has been measured as a greater than 50% increase utilizing this method, and is expected to be in the range of 100% or more over non-pretreated WAS. […]

Experiment [1] has as its system Waste activated sludge (WAS). As to the kind of experiment: WAS solubilization by chlorine dioxide: soluble COD, NH4 and PO4 release over contact time. The note with it: for soluble COD concentration: contact time 24 h, WAS approx. 7 g/L solids. Here is the method: Waste activated sludge (WAS) was obtained from a local municipal WWTP which removes cBOD only and uses a pure oxygen system. In order to achieve similar experiment conditions and be consistent with the previous pilot experiment, the solids concentration was adjusted to approximately 7 g/L. Three digesters were set up and treated with chlorine dioxide dosages of 100, 150 and 200 mg/L respectively. The digesters were operated for 24 hours. Samples were taken at time intervals of 10 min, 1 h, 6 h, 12 h and 24 h to represent different contact time.
This confirmed that chlorine dioxide contact time is the key factor for WAS solubilization. The increased soluble COD concentration can be expressed as 10-11% of TCOD which is quite significant. It was also observed that soluble COD concentration at contacting time of 6 hr was approximately 55-66% of the soluble COD at time 24 hrs. […] The increase of soluble COD corresponded to the volatile solids destruction of 4-6% with different chlorine dioxide treatment dosage.
This is considered insignificant. The PO4 increase was much higher and equaled 16 to 28.3 mg P/L after 24 h. Higher phosphorus than nitrogen release can be attributed to the chlorine dioxide treatment which breaks down the cell walls resulting in the release of unbound orthophosphate PO4—P. The nitrogen in the cells is in the form of organic nitrogen (amino acids) and enzymes are required to convert organic nitrogen to ammonia nitrogen. The low pH resulting from the chlorine dioxide treatment may have deactivated the enzyme activity, therefore no/insignificant NH4—N increase was detected.

The next experiment relates to fecal coliform bacteria. Briefly: Secondary sludge full-scale test: fecal coliform reduction at varying dose rates of chlorine dioxide. The class given is cell-based. The settings on record: for Fecal coliform: sludge, 10 minutes contact time. Here is the method:
Treatment of non-digested wastewater sludge with chlorine dioxide allows the material to meet Class B pathogen reduction requirements prior to digestion by reducing the fecal coliform concentrations to levels much lower than the Class B standard (<2,000,000 fecal coliform bacteria) with less than 15 minutes contact time. The resulting biosolids cake has no odor.
In this test, chlorine dioxide was generated on-site, and was injected (at varying concentrations) into a 100 gpm sludge flow passing through a 4 inch diameter pipe. The pipe length was sufficient to allow 10 minutes of contact time between the sludge and the chlorine dioxide prior to dewatering the material.

With `[O][Cl+][O-]` [chlorine dioxide], in the experiment with anaerobic digester (over non-pretreated WAS, expected), the “expected increase in methane production” value is reported as not below 100%. Besides, in the experiment with anaerobic digester (versus non-pretreated WAS), the “increase in methane production” value was “greater than 50%”. Besides, the NH4 increase in experiment [1] (all chlorine dioxide treatments) was 3-5.2 mg N/L. The “soluble COD concentration” value in experiment [1] (chlorine dioxide dosage 100 mg/L) stood at 913 mg/L; in experiment [1] (chlorine dioxide dosage 150 mg/L), 984 mg/L; in experiment [1] (chlorine dioxide dosage 200 mg/L), 965 mg/L. Further, in experiment [1] (different chlorine dioxide treatment dosages), the volatile solids destruction is recorded as 4-6%. In addition, the “soluble COD at contact time 6 hr as % of soluble COD at 24 hrs” value in experiment [1] (dosages 100-200 mg/L) was 55-66%. Further, the “increase in soluble COD” value in experiment [1] (dosages 100-200 mg/L, 24 h) was found to be 2000%. Besides, in experiment [1] (dosages 100-200 mg/L, 24 h), the “increased soluble COD expressed as % of total COD (TCOD)” value is 10-11%. Further, the “fecal coliform concentrations relative to Class B standard” value in the experiment on fecal coliform bacteria (non-digested wastewater sludge, less than 15 minutes contact time) is reported as < 2,000,000. In addition, the Fecal coliform in the experiment on fecal coliform bacteria (dose rate ClO2 32 mg/L) was 3.32 × 10^5 MPN/g; with fecal coliform bacteria (dose rate ClO2 48 mg/L) it was 123,000 MPN/g; with fecal coliform bacteria (dose rate ClO2 64 mg/L), 1,800 MPN/g; with fecal coliform bacteria (dose rate ClO2 80 mg/L), “BDL”; in the experiment with fecal coliform bacteria (dose rate ClO2 96 mg/L), “BDL”; in the experiment on fecal coliform bacteria (dose rate ClO2 128 mg/L), “BDL”. Moreover, the Fecal coliform result with fecal coliform bacteria (dose rate ClO2 160 mg/L) is given as “BDL*”.
